Several values for one entry are separate records, joined by “and”; a condition that tells them apart may be missing. Equal entries are not always repeated.
Columns and labels:
progesterone production = experiment: Progesterone olfaction in postmenopausal women; format: in vivo; conditions: 10 postmenopausal women; unpublished studies
Text: (§1) These studies raised the question: is this action by olfaction unique to testosterone or can the effect be observed with other hormones? To answer this question, Applicant studied progesterone olfaction in 10 postmenopausal women. Progesterone is the primary female sex hormone and testosterone is the primary male sex hormone. […] This is a ground-breaking discovery: smelling the hormones that have been tested caused the body to produce the hormone that is smelled. However, it is still unknown whether hormone olfaction will work with hormones other than sex hormones.

[1] = test system: free testosterone production; experiment: Testosterone production after olfaction of testosterone or truffle extract; format: in vivo; conditions: olfaction of pure testosterone; unpublished research
Text: Olfaction, the sense of smell, is critical for the survival of almost all creatures. Humans are able to distinguish over 10,000 different odor molecules. With every inhalation, currents of air swirl through the nostrils over the bony turbinates in the nose that contain receptors in the olfactory epithelium. Olfactory mucosa protects the olfactory epithelium and allows odors to dissolve for detection by olfactory receptors. The cilia projecting from the olfactory knob contain receptors for odorants. The cilia project from the knob directly into the […]. The interaction of the right molecule with the right receptor causes a structural transformation of the receptor, which gives rise to an electrical signal to the olfactory bulb and thence to the areas in the limbic brain that perceive it as the original smell.
as §1

blood sugar level = experiment: Blood sugar level in men before and after testosterone olfaction; format: in vivo
Method: To evaluate the possible role of testosterone in blood sugar reduction in diabetes type 2, the following protocol was designed.
Ten men between the ages of 30 to 90 volunteered to participate in this study as subjects. Approximately one and a half hours after having a meal the subject came to Applicant's office. Prior to the testosterone olfaction the blood sugar level was measured.
The subject produced an adequately sized drop of blood from a finger using a lancing device. The blood sugar was measured with a Contour Blood Glucose Monitoring System, Model 9546 C, Serial Number FB00450. The drop of blood was picked up by a Contour blood glucose test strip 7097C specific for the instrument and within the usable date range. This value was recorded as mg/dL.
A drop of pure testosterone diluted 1:1000 in ethanol was sprayed onto the palm of the hand and smelled by the subject. […] This concentration more efficient than the undiluted hormone.
A second blood drop was immediately taken and measured and recorded in the same manner as described above.

insulin resistance = conditions: type 2 diabetic men with low testosterone, weekly injections for 24 weeks; cited from earlier work

Compound	progesterone production after olfaction (progesterone production)	testosterone production after olfaction [1]	percent reduction of sugar level, average for all ten (blood sugar level; average of ten subjects, after testosterone olfaction) [%]	PERCENT CHANGE of blood sugar (blood sugar level; individual subject, before vs after olfaction of testosterone 1:1000 in ethanol)	blood sugar AFTER OLFACTION (blood sugar level; individual subject, measured immediately after smelling testosterone diluted 1:1000 in ethanol, about 1.5 h after a meal, finger blood)	effect of other concentrations compared with 1:1000 dilution (blood sugar level; prior studies, other concentrations of testosterone)	effect on blood sugar level (blood sugar level; testosterone olfaction used alone, ten men)	time in which olfaction lowers blood sugar (blood sugar level; time to lance the finger, collect the blood and test)	ability to utilize insulin (insulin resistance)
CC(=O)[C@H]1CC[C@H]2[C@@H]3CCC4=CC(=O)CC[C@]4(C)[C@H]3CC[C@]12C [progesterone]	does initiate production of progesterone								
C[C@]12CC[C@H]3[C@@H](CCC4=CC(=O)CC[C@@]43C)[C@@H]1CC[C@@H]2O [testosterone]		does initiate testosterone production	36	56% and 30% (2×) and 38% and 19% and 17% and 34% and 70% and 53% and 12%	86 mg/dL (2×) and 99 mg/dL (2×) and 109 mg/dL and 107 mg/dL and 130 mg/dL and 158 mg/dL and 98 mg/dL and 92 mg/dL	essentially the same effect	lowers the blood sugar level	about 30 seconds	improved
